The results in this text go back to patent US7741341B2, “Benzimidazole-derivatives as factor Xa inhibitors” (sanofi-aventis Deutschland GmbH, priority 2003, dated 2010).

The target in the test is T1, human factor Xa (Homo sapiens, UniProt P00742).
T1 construct: human factor Xa (Enzyme Research Laboratories, Inc; South Bend, Ind.); purchased Enzyme Research Laboratories, Inc; South Bend, Ind
T1 sequence (P00742 235-488 limits assumed): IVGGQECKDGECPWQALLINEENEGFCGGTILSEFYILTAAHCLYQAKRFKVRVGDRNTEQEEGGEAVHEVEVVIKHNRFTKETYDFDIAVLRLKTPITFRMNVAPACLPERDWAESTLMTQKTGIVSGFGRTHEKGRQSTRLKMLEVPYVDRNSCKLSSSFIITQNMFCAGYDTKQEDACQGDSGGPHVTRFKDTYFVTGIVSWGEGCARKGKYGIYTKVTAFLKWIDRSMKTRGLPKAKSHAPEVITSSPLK
T1 sequence (P00742 41-179 partner limits assumed): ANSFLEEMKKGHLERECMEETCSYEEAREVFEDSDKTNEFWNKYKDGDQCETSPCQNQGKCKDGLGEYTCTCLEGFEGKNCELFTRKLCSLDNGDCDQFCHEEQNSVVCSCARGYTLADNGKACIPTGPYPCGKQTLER
Kind of test: Factor Xa assay (chromogenic, substrate S-2765). It is filed as biochemical. As to conditions: read-out: Ki(FXa). The procedure:
Purified enzymes were used in chromogenic assays.
The IC50 was determined by combining in appropriate wells of a Costar half-area microtiter plate 25 μl human factor Xa (Enzyme Research Laboratories, Inc.; South Bend, Ind.) in TBS-PEG; 40 μl 10% (v/v) DMSO in TBS-PEG (uninhibited control) or various concentrations of the compound to be tested diluted in 10% (v/v) DMSO in TBS-PEG; and substrate S-2765 (N(α)-benzyloxycarbonyl-D-Arg-Gly-L-Arg-p-nitroanilide; Kabi Pharmacia, Inc.; Franklin, Ohio) in TBS-PEG.
The assay was performed by pre-incubating the compound of formula I plus enzyme for 10 min. Then the assay was initiated by adding substrate to obtain a final volume of 100 μl. […] The enzyme concentration was 0.5 nM and substrate concentration was 140 μM.
For the compound `COCCOCc1cccc2c1nc(C(=O)NC1CCN(C(C)C)CC1)n2CC(=O)Nc1ccc(Cl)cn1` [Example 72, 1-[(5-Chloro-pyridin-2-ylcarbamoyl)-methyl]-4-(2-methoxy-ethoxymethyl)-1H-benzoimidazole-2-carboxylic acid (1-isopropyl-piperidin-4-yl)-amide], the Ki turned out to be 12.5 nM.
In the case of `CC(C)N1CCC(NC(=O)c2nc3c(C(=O)O)cccc3n2Cc2cc(-c3ccc(Cl)s3)on2)CC1` [Example 12, 1-[5-(5-Chloro-thiophen-2-yl)-isoxazol-3-ylmethyl]-2-(1-isopropyl-piperidin-4-ylcarbamoyl)-1H-benzoimidazole-4-carboxylic acid], the Ki turned out to be 3 nM.
For the compound `CC(OC(=O)OC1CCCCC1)OC(=O)c1cccc2c1nc(C(=O)NC1CCN(C(C)C)CC1)n2CC(=O)Nc1ccc(Cl)cn1` (centres unmarked) [Example 34, 1-[(5-Chloro-pyridin-2-ylcarbamoyl)-methyl]-2-(1-isopropyl-piperidin-4-ylcarbamoyl)-1H-benzoimidazole-4-carboxylic acid 1-cyclohexyloxycarbonyloxy-ethyl ester], the Ki came out at 19.5 nM.
Regarding `CC(C)N1CCC(NC(=O)c2nc3c(C(=O)N4C(C)CCCC4C)cccc3n2CC(=O)Nc2ccc(Cl)cn2)CC1` (centres unmarked) [Example 75, 1-[(5-Chloro-pyridin-2-ylcarbamoyl)-methyl]-4-(2,6-dimethyl-piperidine-1-carbonyl)-1H-benzoimidazole-2-carboxylic acid (1-isopropyl-piperidin-4-yl)-amide], the Ki was determined as 2.6 nM.
The value for `COC(=O)c1cccc2c1nc(C(=O)NC1CCN(C(C)C)CC1)n2CC(=O)Nc1ccc(Cl)cn1` [Example 15, 1-[(5-Chloro-pyridin-2-ylcarbamoyl)-methyl]-2-(1-isopropyl-piperidin-4-ylcarbamoyl)-1H-benzoimidazole-4-carboxylic acid methyl ester] was 11.5 nM; that for `CC(OC(=O)OC1CCCCC1)OC(=O)c1ccc2nc(C(=O)NC3CCN(C(C)C)CC3)n(CC(=O)Nc3ccc(Cl)cn3)c2c1` (centres unmarked) [Example 61, 3-[(5-Chloro-pyridin-2-ylcarbamoyl)-methyl]-2-(1-isopropyl-piperidin-4-ylcarbamoyl)-3H-benzoimidazole-5-carboxylic acid 1-cyclohexyloxycarbonyloxy-ethyl ester] was 867 nM.
The value for `COCCOc1cccc2c1nc(C(=O)Nc1ccc(N3CCOCC3=O)cc1)n2CC(=O)Nc1ccc(Cl)cn1` [Example 52, 1-[(5-Chloro-pyridin-2-ylcarbamoyl)-methyl]-4-(2-methoxy-ethoxy)-1H-benzoimidazole-2-carboxylic acid [4-(3-oxo-morpholin-4-yl)-phenyl]-amide] was 14 nM; that for `CC(C)N1CCC(NC(=O)c2nc3c(c(=O)n(C)c(=O)n3C)n2Cc2cc(-c3ccc(Cl)s3)on2)CC1` [Example 92, 7-[5-(5-Chloro-thiophen-2-yl)-isoxazol-3-ylmethyl]-1,3-dimethyl-2,6-dioxo-2,3,6,7-tetrahydro-1H-purine-8-carboxylic acid (1-isopropyl-piperidin-4-yl)-amide] was 22.5 nM.
The value for `CC(OC(=O)OC1CCCCC1)OC(=O)c1cccc2c1nc(C(=O)NC1CCN(C(C)C)CC1)n2Cc1cc(-c2ccc(Cl)s2)on1` (centres unmarked) [Example 21, 1-[5-(5-Chloro-thiophen-2-yl)-isoxazol-3-ylmethyl]-2-(1-isopropyl-piperidin-4-ylcarbamoyl)-1H-benzoimidazole-4-carboxylic acid 1-cyclohexyloxycarbonyloxy-ethyl ester] was 31 nM; that for `COC(=O)c1cccc2nc(C(=O)NC3CCN(C(C)C)CC3)n(Cc3cc(-c4ccc(Cl)s4)on3)c12` [Example 11b, 3-[5-(5-Chloro-thiophen-2-yl)-isoxazol-3-ylmethyl]-2-(1-isopropyl-piperidin-4-ylcarbamoyl)-3H-benzoimidazole-4-carboxylic acid methyl ester] was 1 nM.
For the compound `CC(C)N1CCC(NC(=O)c2nc3cc(C(=O)O)ccc3n2Cc2cnc(-c3ccc(Cl)s3)s2)CC1` [Example 9, 1-[2-(5-Chloro-thiophen-2-yl)-thiazol-5-ylmethyl]-2-(1-isopropyl-piperidin-4-ylcarbamoyl)-1H-benzoimidazole-5-carboxylic acid], the Ki is 94 nM.
As to `O=C(Nc1ccc(-n2ccncc2=O)cc1)c1nc2ccccc2n1Cc1cc(-c2ccc(Cl)s2)on1` [Example 48, 1-[5-(5-Chloro-thiophen-2-yl)-isoxazol-3-ylmethyl]-1H-benzoimidazole-2-carboxylic acid [4-(2-oxo-2H-pyrazin-1-yl)-phenyl]-amide], the inhibition constant (Ki) came to 2 nM.
Regarding `CC(C)N1CCC(NC(=O)c2nc3ccccc3n2CC(=O)Nc2ccc(Cl)cc2)CC1` [Example 2, 1-[(4-Chloro-phenylcarbamoyl)-methyl]-1H-benzoimidazole-2-carboxylic acid (1-isopropyl-piperidin-4-yl)-amide], the Ki came out at 3.1 nM.
The value for `CC(C)N1CCC(NC(=O)c2nc3c(C(=O)OCC4CC4)cccc3n2CC(=O)Nc2ccc(Cl)cn2)CC1` [Example 69, 1-[(5-Chloro-pyridin-2-ylcarbamoyl)-methyl]-2-(1-isopropyl-piperidin-4-ylcarbamoyl)-1H-benzoimidazole-4-carboxylic acid cyclopropylmethyl ester] was 15 nM; that for `CC(OC(=O)OC1CCCCC1)OC(=O)c1ccc2c(c1)nc(C(=O)NC1CCN(C(C)C)CC1)n2CC(=O)Nc1ccc(Cl)cn1` (centres unmarked) [Example 60, 1-[(5-Chloro-pyridin-2-ylcarbamoyl)-methyl]-2-(1-isopropyl-piperidin-4-ylcarbamoyl)-1H-benzoimidazole-5-carboxylic acid 1-cyclohexyloxycarbonyloxy-ethyl ester] was 35 nM.
Next, `CCOC(=O)OC(C)OC(=O)c1ccc2nc(C(=O)NC3CCN(C(C)C)CC3)n(CC(=O)Nc3ccc(Cl)cn3)c2c1` (centres unmarked) [Example 63, 3-[(5-Chloro-pyridin-2-ylcarbamoyl)-methyl]-2-(1-isopropyl-piperidin-4-ylcarbamoyl)-3H-benzoimidazole-5-carboxylic acid 1-ethoxycarbonyloxy-ethyl ester]: 687 nM.
As to `COC(=O)c1cccc2c1nc(C(=O)NC1CCN(C(C)C)CC1)n2Cc1cc(-c2ccc(Cl)s2)on1` [Example 11a, 1-[5-(5-Chloro-thiophen-2-yl)-isoxazol-3-ylmethyl]-2-(1-isopropyl-piperidin-4-ylcarbamoyl)-1H-benzoimidazole-4-carboxylic acid methyl ester], the Ki came out at 4 nM.
For `O=C(Cn1c(C(=O)Nc2ccc(N3CCOCC3=O)cc2)nc2ccccc21)Nc1ccc(Cl)cn1` [Example 35, 1-[(5-Chloro-pyridin-2-ylcarbamoyl)-methyl]-1H-benzoimidazole-2-carboxylic acid [4-(3-oxo-morpholin-4-yl)-phenyl]-amide], the Ki turned out to be 41 nM.
`O=C(Cn1c(C(=O)Nc2ccc(-n3ccc(=O)cc3)cc2)nc2ccccc21)Nc1ccc(Cl)cn1` [Example 39, 1-[(5-Chloro-pyridin-2-ylcarbamoyl)-methyl]-1H-benzoimidazole-2-carboxylic acid [4-(4-oxo-4H-pyridin-1-yl)-phenyl]-amide]: the Ki turned out to be 47 nM.
Next, `CC(C)N1CCC(NC(=O)c2nc3c(CO)cccc3n2CC(=O)Nc2ccc(Cl)cn2)CC1` [Example 71, 1-[(5-Chloro-pyridin-2-ylcarbamoyl)-methyl]-4-hydroxymethyl-1H-benzoimidazole-2-carboxylic acid (1-isopropyl-piperidin-4-yl)-amide]: 7 nM.

A word on the Ki: it is the dissociation constant of the complex between target and ligand, obtained from inhibition or displacement.
